Tests used:
[1] = Displacement of [3H]DTG from sigma2 receptor in rat liver membranes after 180 mins by scintillation counting method; format: cell membranes, Membrane
[2] = biological target: Glutamate receptor ionotropic, NMDA 2B (Homo sapiens, UniProt Q05586+Q13224); assay: Displacement of [3H]ifenprodil from human GluN2B expressed in mouse L(tk-) cells co-expressing GluN1a after 120 mins by scintillation counting method; format: cell-based
Cavia porcellus = organism: Cavia porcellus; assay: Displacement of [3H]-(+)-MK-801 from N-methyl D-aspartate receptor phencyclidine binding site in guinea pig brain cortex membranes at 1 uM after 150 mins by scintillation counting method; format: cell membranes
[3] = biological target: Sigma non-opioid intracellular receptor 1 (Cavia porcellus, UniProt Q60492); assay: Displacement of [3H](+)-pentazocine from sigma1 receptor in guinea pig brain membranes after 180 mins by scintillation counting method; format: cell membranes, Membrane
Sigma non-opioid intracellular receptor 1, sequence (Q60492 whole entry): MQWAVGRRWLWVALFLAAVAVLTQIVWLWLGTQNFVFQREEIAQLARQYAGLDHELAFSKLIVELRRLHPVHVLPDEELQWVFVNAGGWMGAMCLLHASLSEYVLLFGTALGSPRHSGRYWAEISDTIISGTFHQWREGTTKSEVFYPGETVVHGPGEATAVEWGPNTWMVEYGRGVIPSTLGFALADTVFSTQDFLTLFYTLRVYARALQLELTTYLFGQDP

Glutamate receptor ionotropic, NMDA 2B, sequence (Q13224 whole entry, one chain of several): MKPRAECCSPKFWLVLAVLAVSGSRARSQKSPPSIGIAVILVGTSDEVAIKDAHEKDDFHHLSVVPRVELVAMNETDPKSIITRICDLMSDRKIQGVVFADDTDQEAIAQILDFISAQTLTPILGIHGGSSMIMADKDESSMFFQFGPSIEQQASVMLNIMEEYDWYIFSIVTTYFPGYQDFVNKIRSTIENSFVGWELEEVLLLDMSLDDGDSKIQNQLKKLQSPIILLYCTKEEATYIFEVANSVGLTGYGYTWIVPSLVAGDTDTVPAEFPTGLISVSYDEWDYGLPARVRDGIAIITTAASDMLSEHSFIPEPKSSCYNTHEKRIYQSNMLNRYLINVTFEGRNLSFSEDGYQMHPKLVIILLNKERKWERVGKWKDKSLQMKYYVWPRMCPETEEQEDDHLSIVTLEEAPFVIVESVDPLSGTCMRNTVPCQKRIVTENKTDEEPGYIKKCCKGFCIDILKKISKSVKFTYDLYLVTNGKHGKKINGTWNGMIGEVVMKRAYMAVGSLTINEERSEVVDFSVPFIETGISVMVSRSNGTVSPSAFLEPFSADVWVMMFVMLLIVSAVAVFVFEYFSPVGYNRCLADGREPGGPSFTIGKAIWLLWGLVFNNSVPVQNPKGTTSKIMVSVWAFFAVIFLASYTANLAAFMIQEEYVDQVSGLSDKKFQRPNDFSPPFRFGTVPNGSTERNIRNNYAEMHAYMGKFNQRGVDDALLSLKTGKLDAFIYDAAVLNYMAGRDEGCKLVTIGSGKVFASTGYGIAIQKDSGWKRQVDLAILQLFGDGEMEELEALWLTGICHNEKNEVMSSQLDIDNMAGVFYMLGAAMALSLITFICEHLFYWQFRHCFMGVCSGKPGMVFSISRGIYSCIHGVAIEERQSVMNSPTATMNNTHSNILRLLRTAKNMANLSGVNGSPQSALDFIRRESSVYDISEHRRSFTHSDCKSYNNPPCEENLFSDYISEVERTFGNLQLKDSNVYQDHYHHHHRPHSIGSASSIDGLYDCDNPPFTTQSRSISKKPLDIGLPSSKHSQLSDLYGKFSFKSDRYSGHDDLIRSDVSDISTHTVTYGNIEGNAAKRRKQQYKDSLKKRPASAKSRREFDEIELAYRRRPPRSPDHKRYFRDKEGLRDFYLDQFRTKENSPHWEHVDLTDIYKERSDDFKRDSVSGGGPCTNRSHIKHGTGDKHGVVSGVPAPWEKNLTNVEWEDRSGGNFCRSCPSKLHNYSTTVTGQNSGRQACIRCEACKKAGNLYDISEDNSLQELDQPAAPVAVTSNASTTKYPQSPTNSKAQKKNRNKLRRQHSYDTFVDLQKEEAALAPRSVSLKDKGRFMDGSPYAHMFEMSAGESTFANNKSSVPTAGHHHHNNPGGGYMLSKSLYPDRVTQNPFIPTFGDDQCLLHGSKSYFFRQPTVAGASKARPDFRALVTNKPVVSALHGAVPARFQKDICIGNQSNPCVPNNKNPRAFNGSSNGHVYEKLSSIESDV

Compound	Ki [1] [nM]	Ki [2] [nM]	inhibition (Cavia porcellus) [%]	Ki [3] [nM]
COc1ccc2c(c1)CCN(CCCCc1ccccc1)CC2O (stereo unspecified)	554		22	
c1ccc(CCCNC2CCc3ccccc3CC2)cc1	27	16	0	150
c1ccc(N2CCN(C3CCc4ccccc4CC3)CC2)cc1	200	12	5	182
c1ccc(CCCCNC2CCc3ccccc3CC2)cc1	55	17	2	216
c1ccc(CCNC2CCc3ccccc3CC2)cc1	198	20	0	22
c1ccc(CNC2CCc3ccccc3CC2)cc1	203	57	16	107

The next compounds have a lower Ki [1] than those just listed; values first:

Ki [1] [nM]	Ki [2] [nM]	inhibition (Cavia porcellus) [%]	Ki [3] [nM]	Compound
5.4	2.9	30	5.7	c1ccc(CC2CCN(C3CCc4ccccc4CC3)CC2)cc1
18	6.9	11	22	c1ccc(C2CCN(C3CCc4ccccc4CC3)CC2)cc1
9.2	16	12	132	COc1ccc2c(c1)CCC(NCCCc1ccccc1)CC2O (stereo unspecified)
14	5.7	30	20	c1ccc([C@H]2CC[C@H](NC3CCc4ccccc4CC3)CC2)cc1
15	10	0	27	COc1ccc2c(c1)CCC(NCCCc1ccccc1)CC2 (stereo unspecified)
3	2.3	43	14	c1ccc([C@H]2CC[C@@H](NC3CCc4ccccc4CC3)CC2)cc1

From ChEMBL document CHEMBL3351700, “Synthesis, GluN2B affinity and selectivity of benzo[7]annulen-7-amines” (Bioorg Med Chem, 2014)
